# Patent US20070093673A1, “Boron-containing compounds, uses and preparation thereof” (priority 2005, published 2007)
# How the values were obtained:
# Pain and/or Inflammation = assay: Tests on various subjects: cream applied to the inflamed skin area for pain and/or inflammation; assay type: in vivo, human; parameters: key to Pain Condition After Last Application: CD: complete disappearance of pain; RP: residual pain (i.e.: equivalent to mild pain intensity); key to Pain Intensity After Application: No pain: 0; Mild pain: +; Moderate pain: ++; Severe pain: +++ (i.e.: interference with sleep and/or day's activities)
# Protocol: Compound 1, and more particularly Composition 1, was tested on several subjects so as to verify its activity as anti-inflammatory agent and/or analgesic. As it can be seen from Table 1, test subjects having various inflammations or pain have been treated with Composition 1. In each case, a small amount of Composition 1, in the form of a cream, was applied to inflammated skin area by means of a short gentle rub.
# All data were provided under testimony of all volunteers.
# M: male • a) Pain intensity rating: • No pain: 0 • Mild pain: + • Moderate pain: ++ • Severe pain: +++ (i.e.: interference with sleep and/or day's activities). • b) Pain condition after the last application of Compound 1. • CD: complete disappearance of pain. • RP: residual pain (i.e.: equivalent to mild pain intensity).
# [1] = solubility in water of Compound 1; assay type: physicochemical
# Text: The mass spectroscopy analysis (electrospray/scanning) using a Micromass quattra ll triple quadrupole mass spectrometer with a GC and HPLC interface, confirmed the previously illustrated formula for Compound 1. Analysis of Compound 1 was done by mass spectroscopy, positive mode, preparation of samples in 2% acetonitrile-98% methanol. […] The product observed was the following: B3C3H11O9 (223.5 g per mole). […] The purity of the obtained product was>98 % (confirmed by 500 MHz ^1H NMR analysis) and the solubility in water was at maximum 7% w/w, yielding a clear colorless solution.
# An analysis of Compound 1, prepared by using metaboric acid and glycerol, was conducted under the same condition as for Compound 1 with boric acid and glycerol. […] The product observed was the following: B3C3H11O9 (223.5 g per mole). […] When compared to Compound 1 prepared from boric acid and glycerol, the purity and solubility of the obtained product were similar i.e. a purity of ≈98% with solubility in water at maximum of 7% w/w, yielding a colorless solution.
# [2] = all four subjects with chronic diseases, after application
smiles,measurement,setting,value
"CC(=O)Oc1ccccc1C(=O)O [Aspirin®, acetylsalicylic acid, reference compound]",gastric adverse effect that prompted discontinuation,"Pain and/or Inflammation; medications taken in the past by the volunteers, testimony",severe gastric burning sensation
OB(O)OCC(COB(O)O)OB(O)O [Compound 1],solubility in water,"[1]; Compound 1 prepared from boric acid and glycerol, clear colorless solution",≤ 7 % w/w
same,solubility in water,"[1]; Compound 1 prepared from metaboric acid and glycerol, colorless solution",≤ 7 % w/w
same,subjects with total disappearance of pain,Pain and/or Inflammation; 30 minutes after application of the cream containing Compound 1,Four subjects out of six
same,complete loss of stiffness,Pain and/or Inflammation; [2],within four four hours
same,reduced sensation of stiffness,Pain and/or Inflammation; [2],within two hours
same,time to complete relief of the pain after the application,"Pain and/or Inflammation; four subjects with chronic lower back pain, fibromyalgia or arthritis",approximately 30 minutes
same,"pain after last application, all subjects",Pain and/or Inflammation; including three out of six who required a maximum of three applications,complete disappearance of pain for all subjects
same,time to relapse of pain,"Pain and/or Inflammation; one out of four subjects with chronic disease, who required three applications",approximately 12 hours
same,"pain intensity, all volunteers","Pain and/or Inflammation; six volunteers, topical cream",reduced pain intensity for all volunteers
same,loss of swelling at joints and of tenderness sensation,Pain and/or Inflammation; subjects with fibromyalgia and arthritis,approximately the same time-frames as reported earlier for stiffness
same,time to complete disappearance of pain,Pain and/or Inflammation; two subjects with an injury to a leg,within three days
same,effect compared with medications taken in the past for the same chronic afflictions,"Pain and/or Inflammation; versus acetaminophen/Tylenol, acetaminophen-codeine/Empracet or acetylsalicylic acid/Aspirin, testimony of volunteers",higher than medications taken in the past
same,Pain Condition After Last Application,"Pain and/or Inflammation; volunteer D-123-S, injury, leg, 3 applications",CD
same,Pain Intensity After Application,"Pain and/or Inflammation; volunteer D-123-S, injury, leg, before application ++, 3 applications, topical cream",+
same,Time to Pain Relief,"Pain and/or Inflammation; volunteer D-123-S, injury, leg, before application ++, topical cream",0.5 h
same,Pain Condition After Last Application,"Pain and/or Inflammation; volunteer D-321-J, fibromyalgia, hands, 1 application",CD*
same,Pain Intensity After Application,"Pain and/or Inflammation; volunteer D-321-J, fibromyalgia, hands, before application +++, 1 application, topical cream",0
same,Time to Pain Relief,"Pain and/or Inflammation; volunteer D-321-J, fibromyalgia, hands, before application +++, topical cream",0.5 h
same,Pain Condition After Last Application,"Pain and/or Inflammation; volunteer D-457-D, fibromyalgia, hands & feet, 1 application",CD*
same,Pain Intensity After Application,"Pain and/or Inflammation; volunteer D-457-D, fibromyalgia, hands & feet, before application ++, 1 application, topical cream",0
same,Time to Pain Relief,"Pain and/or Inflammation; volunteer D-457-D, fibromyalgia, hands & feet, before application ++, topical cream",0.5 h
same,Pain Condition After Last Application,"Pain and/or Inflammation; volunteer D-633-J, lower back pain, musculoskeletal, 1 application",CD*
same,Time to Pain Relief,"Pain and/or Inflammation; volunteer D-633-J, lower back pain, musculoskeletal, before application ++, topical cream",0.5 h
same,Pain Intensity After Application,"Pain and/or Inflammation; volunteer D-633-J, lower back pain, musculoskeletal, lower back, central, before application ++, 1 application, topical cream",0
same,Pain Condition After Last Application,"Pain and/or Inflammation; volunteer D-701, arthritis, wrists, 3 applications",CD
same,Time to Pain Relief,"Pain and/or Inflammation; volunteer D-701, arthritis, wrists, before application ++, topical cream",0.5 h
same,Pain Intensity After Application,"Pain and/or Inflammation; volunteer D-942-L, injury, leg, before application +++, 3 applications, topical cream",++
same,Pain Condition After Last Application,"Pain and/or Inflammation; volunteer D-942-L, injury, leg, 3 applications",CD
same,Time to Pain Relief,"Pain and/or Inflammation; volunteer D-942-L, injury, leg, before application +++, topical cream",8.0 h
